# Assays:
# [1] = target: PKCθ (Homo sapiens, UniProt Q04759); assay: PKCθ Scintiplate Assay; assay type: biochemical; settings: average value when one or more samples were tested
# Method: This assay detects the phosphorylation of a biotinylated substrate by kinase utilizing radiolabeled ATP (ATP γ P33). The enzyme is either recombinant full length PKCθ (Panvera, P2996) or the purified recombinant active kinase domain of full length PKCθ (amino acids 362-706). The substrate in this assay is a biotinylated peptide with a sequence of biotin-[…]-CONH2. The assay buffer is composed of 100 mM Hepes, pH7.5, 2 mM MgCl2, 20 mM β-glycerophosphate and 0.008% TritonX 100. A reaction mixture of ATP, ATP γ P33 (PerkinElmer), DTT, lipid activator, and the enzyme is prepared in the assay buffer and added to a 96 well polypropylene plate. The compound (diluted in DMSO in a separate 96-well polypropylene plate) is added to the reaction mixture and incubated at room temperature. Following the incubation, the peptide substrate is added to the reaction mixture to initiate the enzymatic reaction. The reaction is terminated with the addition of a stop solution (10 mM EDTA, 0.2% TritonX100, and 100 mM NaHPO4) and transferred from the assay plate to a washed streptavidin-coated 96 well scintiplate (PerkinElmer). The scintiplate is incubated at room temperature, washed in PBS with 0.1% TritonX 100, and counted in the 1450 Microbeta Trilux (Wallac, Version 2.60). Counts are recorded for each well as corrected counts per minute (CCPM). The counts are considered corrected because they are adjusted according to a P33 normalization protocol, which corrects for efficiency and background differences between the instrument detectors (software version 4.40.01).
# [2] = target: T1, human PKCθ full length enzyme (Homo sapiens, UniProt Q04759); assay: PKCθ IMAP Assay; assay type: biochemical; settings: average value when one or more samples were tested; ATP 6 uM, PKCθ 1 nM
# T1 construct: human PKCθ full length enzyme (Panvera Catalog No. P2996); purchased Panvera P2996
# T1 sequence (Q04759 whole entry): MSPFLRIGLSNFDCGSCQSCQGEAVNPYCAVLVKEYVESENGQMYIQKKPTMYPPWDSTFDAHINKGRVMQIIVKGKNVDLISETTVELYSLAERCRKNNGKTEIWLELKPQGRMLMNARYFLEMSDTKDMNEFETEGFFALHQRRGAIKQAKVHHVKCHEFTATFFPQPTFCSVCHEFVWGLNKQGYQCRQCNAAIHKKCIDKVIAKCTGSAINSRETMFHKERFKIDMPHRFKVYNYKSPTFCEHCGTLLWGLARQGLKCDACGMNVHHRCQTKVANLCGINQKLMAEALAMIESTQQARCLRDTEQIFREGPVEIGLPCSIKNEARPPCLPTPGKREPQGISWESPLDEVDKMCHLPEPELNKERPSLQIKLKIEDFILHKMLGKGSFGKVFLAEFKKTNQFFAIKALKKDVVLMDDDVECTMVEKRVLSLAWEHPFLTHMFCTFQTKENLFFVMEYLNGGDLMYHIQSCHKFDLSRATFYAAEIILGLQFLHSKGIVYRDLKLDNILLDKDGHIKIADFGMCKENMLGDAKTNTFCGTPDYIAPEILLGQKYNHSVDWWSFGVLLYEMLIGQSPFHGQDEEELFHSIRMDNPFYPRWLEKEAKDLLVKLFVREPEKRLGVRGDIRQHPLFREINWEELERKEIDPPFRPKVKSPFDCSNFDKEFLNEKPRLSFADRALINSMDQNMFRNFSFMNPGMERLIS
# Outline: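 IMAP fluorescence polarization after 20 min with binding beads measured phosphorylation of 100 nM 5FAM-peptide. Reactions held 1 nM full-length human PKCθ, 6 uM ATP, 5% DMSO and DTT-containing buffer, 25 min at room temperature. Compounds tested as 2:1 serial dilutions; controls lacked ATP or enzyme.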
# Sequence of PKCθ (Q04759 362-706 limits assumed): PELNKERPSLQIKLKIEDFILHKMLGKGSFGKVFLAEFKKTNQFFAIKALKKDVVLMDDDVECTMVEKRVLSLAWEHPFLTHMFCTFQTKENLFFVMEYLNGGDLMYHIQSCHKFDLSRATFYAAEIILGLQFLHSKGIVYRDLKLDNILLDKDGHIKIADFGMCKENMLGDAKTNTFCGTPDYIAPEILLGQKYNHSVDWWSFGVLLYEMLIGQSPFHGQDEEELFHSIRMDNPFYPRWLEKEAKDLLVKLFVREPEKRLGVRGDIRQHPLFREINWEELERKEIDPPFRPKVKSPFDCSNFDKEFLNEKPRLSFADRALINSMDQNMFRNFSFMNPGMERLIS
Structure (SMILES),IC50 [1],IC50 [2],melting point
"CN1CCN(Cc2ccc(-c3cc4c(Nc5ccc6[nH]ccc6c5)c(C#N)cnc4s3)cc2)CC1 [Compound 104, 4-(1H-indol-5-ylamino)-2-{4-[(4-methylpiperazin-1-yl)methyl]phenyl}thieno[2,3-b]pyridine-5-carbonitrile]",280 nM,–,–
"CN1CCN(CC/C=C/c2cc3c(Nc4ccc5[nH]ccc5c4)c(C#N)cnc3s2)CC1 [Compound 273, 4-(1H-indol-5-ylamino)-2-[(1E)-4-(4-methylpiperazin-1-yl)but-1-en-1-yl]thieno[2,3-b]pyridine-5-carbonitrile]",–,447 nM,220 °C
"CN1CCN(CCCCc2cc3c(Nc4ccc5[nH]ccc5c4)c(C#N)cnc3s2)CC1 [Compound 274, 4-(1H-indol-5-ylamino)-2-[4-(4-methylpiperazin-1-yl)butyl]thieno[2,3-b]pyridine-5-carbonitrile]",–,983 nM,120 °C (dec.)
"CCOC(=O)/C=C/c1cc2c(Nc3ccc4[nH]ccc4c3)c(C#N)cnc2s1 [Compound 280, ethyl (2E)-3-[5-cyano-4-(1H-indol-5-ylamino)thieno[2,3-b]pyridin-2-yl]acrylate]",–,605 nM,226 °C
"N#Cc1cnc2sc(/C=C/C(=O)O)cc2c1Nc1ccc2[nH]ccc2c1 [Compound 281, (2E)-3-[5-cyano-4-(1H-indol-5-ylamino)thieno[2,3-b]pyridin-2-yl]acrylic acid]",–,1960 nM,230 °C (dec.)
"Cc1c(Nc2c(C#N)cnc3sc(/C=C/C(=O)O)cc23)ccc2[nH]ccc12 [Compound 283, (2E)-3-{5-cyano-4-[(4-methyl-1H-indol-5-yl)amino]thieno[2,3-b]pyridin-2-yl}acrylic acid]",–,21 nM,> 350 °C
"CCOC(=O)CCc1cc2c(Nc3ccc4[nH]ccc4c3)c(C#N)cnc2s1 [Compound 284, ethyl 3-[5-cyano-4-(1H-indol-5-ylamino)thieno[2,3-b]pyridin-2-yl]propanoate]",–,657 nM,202 °C
"N#Cc1cnc2sc(CCC(=O)O)cc2c1Nc1ccc2[nH]ccc2c1 [Compound 285, 3-[5-cyano-4-(1H-indol-5-ylamino)thieno[2,3-b]pyridin-2-yl]propanoic acid]",–,5020 nM,255 °C
"Cc1c(Nc2c(C#N)cnc3sc(/C=C/C(=O)O)c(C)c23)ccc2[nH]ccc12 [Compound 287, (2E)-3-{5-Cyano-3-methyl-4-[(4-methyl-1H-indol-5-yl)amino]thieno[2,3-b]pyridin-2-yl}acrylic acid]",–,47 nM,329 °C
"Cc1c(Nc2c(C#N)cnc3sc(CCC(=O)N4CCCC4)cc23)ccc2[nH]ccc12 [Compound 315, 4-[(4-methyl-1H-indol-5-yl)amino]-2-(3-oxo-3-pyrrolidin-1-ylpropyl)thieno[2,3-b]pyridine-5-carbonitrile]",–,251 nM,175 °C
"N#Cc1cnc2sc(CCc3ccccc3)cc2c1Nc1ccc2[nH]ccc2c1 [Compound 316, 4-(1H-Indol-5-ylamino)-2-(2-phenylethyl)thieno[2,3-b]pyridine-5-carbonitrile]",–,1690 nM,150 °C (dec.)
"CN(C)Cc1cccc(-c2cc3c(Nc4ccc5[nH]ccc5c4)c(C#N)cnc3s2)n1 [Compound 443, 2-{6-[(dimethylamino)methyl]pyridin-2-yl}-4-(1H-indol-5-ylamino)thieno[2,3-b]pyridine-5-carbonitrile]",–,125 nM,198 to 200 °C
"Cc1c(Nc2c(C#N)cnc3sc(C#Cc4cc(CN(C)C)ccn4)cc23)ccc2[nH]ccc12 [Compound 444, 2-({4-[(dimethylamino)methyl]pyridin-2-yl}ethynyl)-4-[(4-methyl-1H-indol-5-yl)amino]thieno[2,3-b]pyridine-5-carbonitrile]",–,176 nM,> 250 °C
"Cc1c(Nc2c(C#N)cnc3sc(C#Cc4ccc(N(C)C)nc4)cc23)ccc2[nH]ccc12 [Compound 445, 2-{[6-(dimethylamino)pyridin-3-yl]ethynyl}-4-[(4-methyl-1H-indol-5-yl)amino]thieno[2,3-b]pyridine-5-carbonitrile]",–,550 nM,> 260 °C
"Cc1c(Nc2c(C#N)cnc3sc(C#Cc4coc(CN5CCN(C)CC5)c4)cc23)ccc2[nH]ccc12 [Compound 447, 4-[(4-methyl-1H-indol-5-yl)amino]-2-({5-[(4-methylpiperazin-1-yl)methyl]-3-furyl}ethynyl)thieno[2,3-b]pyridine-5-carbonitrile]",–,171 nM,216 to 218 °C
"Cc1c(Nc2c(C#N)cnc3sc(C#Cc4ccc(CN(C)C)s4)cc23)ccc2[nH]ccc12 [Compound 448, 2-({5-[(dimethylamino)methyl]-2-thienyl}ethynyl)-4-[(4-methyl-1H-indol-5-yl)amino]thieno[2,3-b]pyridine-5-carbonitrile]",–,83 nM,185 to 187 °C
"Cc1c(Nc2c(C#N)cnc3sc(C#Cc4ccc(CN(C)C)o4)cc23)ccc2[nH]ccc12 [Compound 449, 2-({5-[(dimethylamino)methyl]-2-furyl}ethynyl)-4-[(4-methyl-1H-indol-5-yl)amino]thieno[2,3-b]pyridine-5-carbonitrile]",–,25 nM,218 to 220 °C
"Cc1c(Nc2c(C#N)cnc3sc(C#Cc4cncc(C(=O)N(C)C)c4)cc23)ccc2[nH]ccc12 [Compound 451, 5-({5-cyano-4-[(4-methyl-1H-indol-5-yl)amino]thieno[2,3-b]pyridin-2-yl}ethynyl)-N,N-dimethylnicotinamide]",–,24 nM,> 260 °C
"Cc1c(Nc2c(C#N)cnc3sc(C#Cc4cncc(CN(C)C)c4)cc23)ccc2[nH]ccc12 [Compound 452, 2-({5-[(dimethylamino)methyl]pyridin-3-yl}ethynyl)-4-[(4-methyl-1H-indol-5-yl)amino]thieno[2,3-b]pyridine-5-carbonitrile]",–,18 nM,130 °C (dec.)
"Cc1c(Nc2c(C#N)cnc3sc(C#Cc4ccc(CN(C)C)nc4)cc23)ccc2[nH]ccc12 [Compound 453, 2-({6-[(dimethylamino)methyl]pyridin-3-yl}ethynyl)-4-[(4-methyl-1H-indol-5-yl)amino]thieno[2,3-b]pyridine-5-carbonitrile]",–,60 nM,230 to 232 °C
"Cc1c(Nc2c(C#N)cnc3sc(C4=CCN(S(C)(=O)=O)CC4)cc23)ccc2[nH]ccc12 [Compound 475, 4-[(4-methyl-1H-indol-5-yl)amino]-2-[1-(methylsulfonyl)-1,2,3,6-tetrahydropyridin-4-yl]thieno[2,3-b]pyridine-5-carbonitrile]",–,31 nM,228 °C
"Cc1c(Nc2c(C#N)cnc3sc(C4=CCN(C)CC4)cc23)ccc2[nH]ccc12 [Compound 477, 4-[(4-Methyl-1H-indol-5-yl)amino]-2-(1-methyl-1,2,3,6-tetrahydropyridin-4-yl)thieno[2,3-b]pyridine-5-carbonitrile]",–,41 nM,230 °C
"Cc1c(Nc2c(C#N)cnc3sccc23)ccc2[nH]ccc12 [Compound 480, 4-[(4-methyl-1H-indol-5-yl)amino]thieno[2,3-b]pyridine-5-carbonitrile]",–,67 nM,255 °C
"Cc1c(Nc2c(C#N)cnc3scc(C)c23)ccc2[nH]ccc12 [Compound 481, 3-Methyl-4-[(4-methyl-1H-indol-5-yl)amino]thieno[2,3-b]pyridine-5-carbonitrile]",–,46 nM,261 °C
"Cc1c(Nc2c(C#N)cnc3sc(-c4ccc(OCCN(C)C)cc4)cc23)ccc2[nH]ccc12 [Compound 494, 2-{4-[2-(dimethylamino)ethoxy]phenyl}-4-[(4-methyl-1H-indol-5-yl)amino]thieno[2,3-b]pyridine-5-carbonitrile]",–,23 nM,182 to 184 °C
"N#Cc1cnc2sc(Cl)cc2c1Nc1ccc2[nH]ccc2c1 [Compound 495, 2-chloro-4-(1H-indol-5-ylamino)thieno[2,3-b]pyridine-5-carbonitrile]",–,395 nM,228 °C
"Cc1c(Nc2c(C#N)cnc3scc(CO)c23)ccc2[nH]ccc12 [Compound 496, 3-(Hydroxymethyl)-4-[(4-methyl-1H-indol-5-yl)amino]thieno[2,3-b]pyridine-5-carbonitrile]",–,63 nM,230 °C
"N#Cc1c[n+]([O-])c2sc(-c3ccccc3)cc2c1Nc1ccc2[nH]ccc2c1 [Compound 500, 4-(1H-indol-5-ylamino)-2-phenylthieno[2,3-b]pyridine-5-carbonitrile 7-oxide]",–,16800 nM,> 245 °C
